Results as given in US20060287251A1, “Combination therapy for glycaemic control” (priority 2003, published 2006).

How the values were obtained:
[1] = test system: diabetic Zucker rats; assay: Dose escalation study with OGTT in fatty Zucker rats after oral administration; assay type: in vivo, rat
Procedure: N=30 male Zucker rats (fa/fa), mean age 11 weeks (5-12 weeks), mean body weight 350 g (150-400 g), were purchased from Charles River (Sulzfeld, Germany). After delivery they were kept for >12 weeks until nearly all fatty Zucker rats had the characteristics of manifest diabetes mellitus. A group of N=8 animals were recruited for testing three escalating doses of glutaminyl pyrrolidine vs. placebo (saline). Animals were single-caged under standardized conditions with controlled temperature (22±2° C.) on a 12/12 hours light/dark cycle (light on at 06:00 AM). Sterile standard pelleted chow (ssniff® Soest, Germany) and tap water acidified with HCl were allowed ad libitum. Fatty Zucker rats of 24-31 weeks (mean: 25 weeks) age, adapted to the housing conditions, were well prepared for the study. Catheters were implanted into the carotid artery of fatty Zucker rats under general anaesthesia (i.p. injection of 0.25 ml/kg b.w. Rompun®[2%], BayerVital, Germany and 0.5 ml/kg b.w. Ketamin 10, Atarost GmbH & Co., Twistringen, Germany). The animals were allowed to recover for one week. The catheters were flushed with heparin-saline (100 IU/ml) three times per week.
Placebo (1 ml saline, 0.154 mol/l) or escalating doses of glutaminyl pyrrolidine (5, 15 and 50 mg/kg b.w.) were administered to groups of N=8 fatty Zucker rats. 375 mg of glutaminyl pyrrolidine were dissolved in 1000 μl DMSO (E. Merck, Darmstadt; Germany [Dimethyl sulfoxide p.a.]). 10 mL saline was added and 1 ml aliquots, each containing 34.09 mg of glutaminyl pyrrolidine, were stored at −20° C. For preparation of the test substance, dose dependent aliquots were diluted in saline. After overnight fasting, placebo or test substance were administered to the fatty Zucker rats via feeding tube orally (15 G, 75 mm; Fine Science Tools, Heidelberg, Germany) at −10 min An oral glucose tolerance test (OGTT) with 2 g/kg b.w. glucose (40% solution, B. Braun Melsungen, Melsungen, Germany) was administered at ±O min via a second feeding tube. Venous blood samples from the tail veins were collected at −30 min, −15 min, ±0 min and at 5, 10, 15, 20, 30, 40, 60, 90 and 120 min into 20 lμl glass capillaries, which were placed in standard tubes filled with 1 mL solution for blood glucose measurement. All blood samples were labelled with Code number, Animal Number, Date of sampling and Time of sampling.
Glucose levels were measured using the glucose oxidase procedure (Super G Glucose analyzer; Dr. Müller Gerältebau, Freital, Germany).
Statistical evaluations and graphics were performed with PRISM® 3.02 (GraphPad Software, Inc.). All parameters were analysed in a descriptive manner including mean and SD. […]

[2] = target: T1, dipeptidyl peptidase IV from porcine kidney (Sus scrofa, UniProt P22411); assay: Ki-determination, DP IV from porcine kidney; assay type: biochemical; details: substrate glycylprolyl-4-nitroaniline, 30 °C, pH 7.6, competitive inhibition
T1 construct: dipeptidyl peptidase IV from porcine kidney with a specific activity against glycylprolyl-4-nitroaniline of 37.5 U/mg; from tissue; host or cells: porcine kidney
Procedure: For Kidetermination of glutaminyl pyrrolidine and glutaminyl thiazolidine, dipeptidyl peptidase IV from porcine kidney with a specific activity against glycylprolyl-4-nitroaniline of 37.5 U/mg and an enzyme concentration of 1.41 mg/mL in the stock solution was used.
100 μL glutaminyl pyrrolidine or glutaminyl thiazolidine in a concentration range of 1*10^−5 -1*10^−7 M (glutaminyl pyrrolidine) and 1*10^−6 M-1*10^−8 M (glutaminyl thiazolidine) respectively were admixed with 50 μL glycylprolyl-4-nitroaniline in different concentrations (0.4 mM, 0.2 mM, 0.1 mM, 0,05 mM) and 100 μl HEPES (40 mM, pH7.6; ion strength=0.125). The assay mixture was pre-incubated at 30 ° C. for 30 min. After pre-incubation, 20 μL DPIV (1:600 diluted) were added and measurement of yellow color development due to 4-nitroaniline release was performed at 30° C. and λ=405 nm for 10 min using a plate reader (HTS7000 plus, Applied Biosystems, Weiterstadt, Germany). The Ki-values were calculated using Graphit 4.0.15 (Erithacus Software, Ltd, UK) based on a competitive inhibition of DPIV by glutaminyl pyrrolidine or glutaminyl thiazolidine.

[3] = 5, 15 and 50 mg/kg b.w. oral (dose escalation)

T1 sequence (P22411 whole entry): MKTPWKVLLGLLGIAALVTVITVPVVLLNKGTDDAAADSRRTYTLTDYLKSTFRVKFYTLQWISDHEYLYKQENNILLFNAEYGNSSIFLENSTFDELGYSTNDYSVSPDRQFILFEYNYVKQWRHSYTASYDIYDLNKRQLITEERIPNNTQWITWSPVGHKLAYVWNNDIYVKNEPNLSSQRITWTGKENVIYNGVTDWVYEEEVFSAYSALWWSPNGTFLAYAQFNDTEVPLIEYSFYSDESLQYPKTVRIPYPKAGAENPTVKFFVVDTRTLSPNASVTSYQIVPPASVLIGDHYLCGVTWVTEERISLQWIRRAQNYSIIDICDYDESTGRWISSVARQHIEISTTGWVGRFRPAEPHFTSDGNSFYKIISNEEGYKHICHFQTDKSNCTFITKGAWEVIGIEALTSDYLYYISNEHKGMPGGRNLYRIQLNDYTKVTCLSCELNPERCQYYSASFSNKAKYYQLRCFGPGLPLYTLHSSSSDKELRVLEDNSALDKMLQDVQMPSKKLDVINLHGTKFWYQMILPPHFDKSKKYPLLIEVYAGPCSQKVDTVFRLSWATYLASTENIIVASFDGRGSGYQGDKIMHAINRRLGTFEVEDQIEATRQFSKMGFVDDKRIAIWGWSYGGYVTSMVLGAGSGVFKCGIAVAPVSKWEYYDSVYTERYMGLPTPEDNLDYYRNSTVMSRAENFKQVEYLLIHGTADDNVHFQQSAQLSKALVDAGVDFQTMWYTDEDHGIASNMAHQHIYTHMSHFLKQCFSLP

SMILES | blood glucose levels and glucose tolerance in OGTT [1, 3] | Ki [2] [nM] | glucose tolerance in OGTT ([1]; 5 mg/kg b.w. oral, OGTT 2 g/kg glucose) | blood glucose levels and glucose tolerance in OGTT ([1]; 15 mg/kg and 50 mg/kg b.w. oral, OGTT 2 g/kg glucose)
NC(=O)CC[C@H](N)C(=O)N1CCSC1 [glutaminyl thiazolidine] | dose dependent lowering of elevated blood glucose levels and improvement of glucose tolerance | 312 | – | –
NC(=O)CC[C@H](N)C(=O)N1CCCC1 [glutaminyl pyrrolidine] | dose dependent lowering of elevated blood glucose levels | 1300 | limited improvement of glucose tolerance | Significant lowering of elevated blood glucose levels and improvement of glucose tolerance
